Measurements from US20170280720A1, “ARGININE […] INHIBITORS AND USES THEREOF” (EPIZYME, INC., priority 2014, published 2017).

Experiments:
[1] = target: T1, human PRMT1 (Homo sapiens, UniProt Q99873); experiment: PRMT1 biochemical assay (3H-SAM Flashplate, peptide substrate); conditions: read-out: PRMT1_ IC50
T1 construct: GST-tagged PRMT1; made in house; host or cells: High Five insect cells (baculovirus, pFastBacI)
Excerpt: S-adenosylmethionine (SAM), S-adenosylhomocysteine (SAH), bicine, Tween20, dimethylsulfoxide (DMSO), bovine skin gelatin (BSG), and Tris(2-carboxyethyl)phosphine hydrochloride solution (TCEP) were purchased from Sigma-Aldrich at the highest level of purity possible. ^3H-SAM was purchase from American Radiolabeled Chemicals with a specific activity of 80 Ci/mmol. 384-well streptavidin Flashplates were purchased from PerkinElmer.
Peptide representative of human histone H4 residues 36-50 was synthesized with an N-terminal linker-affinity tag motif and a C-terminal amide cap by 21st Century Biochemicals. The peptide was purified by high-performance liquid chromatography (HPLC) to greater than 95% purity and confirmed by liquid chromatography mass spectrometry (LC-MS). The sequence was Biot-Ahx-[…]-amide (SEQ ID NO.: 1).
Full-length human PRMT1 isoform 1 (NM_001536.5) transcript clone was amplified from an HEK 293 cDNA library, incorporating flanking 5′ sequence encoding a FLAG tag ([…]) (SEQ ID NO.: 2) fused directly to Met 1 of PRMT1. The amplified gene was subcloned into pFastBacI (Life Technologies) modified to encode an N-terminal GST tag and a TEV cleavage sequence ([…] […] […] […] QGGNS)(SEQ ID NO.: 3) fused to Asp of the Flag tag of PRMT1.
Recombinant baculovirus were generated according to Bac-to-Bac kit instructions (Life Technologies). Protein over-expression was accomplished by infecting exponentially growing High Five insect cell culture at 1.5×10^6 cell/ml with 1:100 ratio of virus. Infections were carried out at 27° C. for 48 hours, harvested by centrifugation, and stored at −80° C. for purification.
GST-tagged PRMT1 was eluted with 50 mM Tris, 2 mM glutathione, pH 7.8, dialysed in buffer A and concentrated to 1 mg/mL. The purity of recovered protein was 73%. Reference: Wasilko, D. J. and S. E. Lee: “TIPS: titerless infected-cells preservation and scale-up” Bioprocess J., 5 (2006), pp. 29-32.
General Procedure for PRMT1 Enzyme Assays on Peptide Substrates.
The assays were all performed in a buffer consisting of 20 mM Bicine (pH=7.6), 1 mM TCEP, 0.005% BSG, and 0.002% Tween 20, prepared on the day of use. Compounds in 100% DMSO (1 ul) were spotted into a polypropylene 384-well V-bottom plates (Greiner) using a Platemate Plus outfitted with a 384-channel head (Thermo Scientific). DMSO (1 ul) was added to Columns 11, 12, 23, 24, rows A-H for the maximum signal control and 1 ul of SAH, a known product and inhibitor of PRMT1, was added to columns 11, 12, 23, 24, rows I-P for the minimum signal control. A cocktail (40 ul) containing the PRMT1 enzyme was added by Multidrop Combi (Thermo-Fisher). The compounds were allowed to incubate with PRMT1 for 30 min at room temperature, then a cocktail (10 ul) containing SAM and peptide was added to initiate the reaction (final volume=51 ul). The final concentrations of the components were as follows: PRMT1 was 0.5 nM, ^3H-SAM was 200 nM, non-radiolabeled SAM was 1.5 uM, peptide was 20 nM, SAH in the minimum signal control wells was 1 mM, and the DMSO concentration was 2%. The assays were stopped by the addition of non-radiolabeled SAM (10 ul) to a final concentration of 300 uM, which dilutes the ^3H-SAM to a level where its incorporation into the peptide substrate is no longer detectable. 50 ul of the reaction in the 384-well polypropylene plate was then transferred to a 384-well Flashplate and the biotinylated peptides were allowed to bind to the streptavidin surface for at least 1 hour before being washed once with 0.1% Tween20 in a Biotek ELx405 plate washer. The plates were then read in a PerkinElmer TopCount plate reader to measure the quantity of ^3H-labeled peptide bound to the Flashplate surface, measured as disintegrations per minute (dpm) or alternatively, referred to as counts per minute (cpm).
Where dpm=disintegrations per minute, cmpd=signal in assay well, and min and max are the respective minimum and maximum signal controls. […]

[2] = target: PRMT5 (Homo sapiens, UniProt O14744); experiment: PRMT5 IC50 (Table 2; no method described); format: biochemical; conditions: read-out: PRMT5_ IC50
[3] = target: T2, Human CARM1 (PRMT4) (Homo sapiens, UniProt Q86X55); experiment: CARM1 biochemical assay (3H-SAM Flashplate, peptide substrate); conditions: read-out: CARM1_ IC50
T2 construct: Flag-CARM1-His; made in house; host or cells: HEK 293F cells (BacMam baculovirus, pFastBacMam)
T2 sequence (Q86X55 2-585 isoform Q86X55-1): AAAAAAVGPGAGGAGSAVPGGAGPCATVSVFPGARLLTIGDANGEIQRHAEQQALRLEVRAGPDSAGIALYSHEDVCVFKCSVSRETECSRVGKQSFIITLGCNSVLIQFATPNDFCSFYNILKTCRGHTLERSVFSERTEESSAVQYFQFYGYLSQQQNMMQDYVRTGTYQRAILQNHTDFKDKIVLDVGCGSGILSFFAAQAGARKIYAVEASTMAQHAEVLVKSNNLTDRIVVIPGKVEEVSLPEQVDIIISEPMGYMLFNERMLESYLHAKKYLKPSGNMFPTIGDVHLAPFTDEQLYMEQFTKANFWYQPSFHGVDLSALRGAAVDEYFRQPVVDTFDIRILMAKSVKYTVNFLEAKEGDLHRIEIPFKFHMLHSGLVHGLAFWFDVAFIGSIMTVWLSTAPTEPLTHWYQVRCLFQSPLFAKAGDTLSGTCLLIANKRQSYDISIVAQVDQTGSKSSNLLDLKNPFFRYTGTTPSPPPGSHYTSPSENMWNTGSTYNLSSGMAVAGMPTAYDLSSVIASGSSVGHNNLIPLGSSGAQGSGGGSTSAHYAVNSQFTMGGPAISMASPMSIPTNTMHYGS
In short: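 FLAG/His-tagged human CARM1 (isoform 1, Δ539-561, baculovirus-expressed), 0.25 nM, preincubated 30 min at room temperature with compound (2% DMSO) in 20 mM Bicine pH 7.6, then reacted with 30 nM 3H-SAM and 250 nM biotinylated H3 16-30 peptide (R26 monomethyl). Stopped with 300 uM cold SAM; labelled peptide captured on streptavidin Flashplate; % inhibition versus DMSO and 1 mM SAH controls fitted to a 4- or 3-parameter curve.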

[4] = test system: asymmetric di-methyl PABP1 in RKO cells; experiment: In Cell Western (ICW) for asymmetric di-methyl PABP1 and DNA content in RKO cells; format: cell-based; conditions: Homo sapiens, RKO, In Cell Western
In short: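 RKO cells treated with compound for 48 h at 37 °C, then fixed, methanol-permeabilized and stained for asymmetric di-methyl PABP1 (800 nm) with DRAQ5 DNA stain (700 nm). Signal ratio normalized to DMSO and 20 μM reference-compound controls. IC50 from nine 3-fold dilutions in triplicate.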

PRMT5, sequence (O14744 whole entry, species assumed): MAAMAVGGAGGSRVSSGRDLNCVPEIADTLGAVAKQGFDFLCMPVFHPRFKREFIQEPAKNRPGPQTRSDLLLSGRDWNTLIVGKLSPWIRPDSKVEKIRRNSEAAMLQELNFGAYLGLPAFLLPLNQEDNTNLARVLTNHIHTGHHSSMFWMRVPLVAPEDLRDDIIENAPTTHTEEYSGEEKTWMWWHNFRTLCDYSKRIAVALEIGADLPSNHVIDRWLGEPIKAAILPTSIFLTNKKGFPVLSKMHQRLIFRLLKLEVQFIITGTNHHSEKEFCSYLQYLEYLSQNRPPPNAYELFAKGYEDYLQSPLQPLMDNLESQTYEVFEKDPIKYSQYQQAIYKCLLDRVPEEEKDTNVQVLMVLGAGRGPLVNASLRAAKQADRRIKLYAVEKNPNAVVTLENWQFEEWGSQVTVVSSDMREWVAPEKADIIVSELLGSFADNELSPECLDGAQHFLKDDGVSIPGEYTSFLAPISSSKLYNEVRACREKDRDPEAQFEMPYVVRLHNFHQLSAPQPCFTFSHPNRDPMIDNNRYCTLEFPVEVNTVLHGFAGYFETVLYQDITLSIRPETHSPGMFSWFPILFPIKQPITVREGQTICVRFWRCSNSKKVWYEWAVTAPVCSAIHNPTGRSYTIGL
PRMT5, sequence (Q9BQA1 whole entry partner, species assumed): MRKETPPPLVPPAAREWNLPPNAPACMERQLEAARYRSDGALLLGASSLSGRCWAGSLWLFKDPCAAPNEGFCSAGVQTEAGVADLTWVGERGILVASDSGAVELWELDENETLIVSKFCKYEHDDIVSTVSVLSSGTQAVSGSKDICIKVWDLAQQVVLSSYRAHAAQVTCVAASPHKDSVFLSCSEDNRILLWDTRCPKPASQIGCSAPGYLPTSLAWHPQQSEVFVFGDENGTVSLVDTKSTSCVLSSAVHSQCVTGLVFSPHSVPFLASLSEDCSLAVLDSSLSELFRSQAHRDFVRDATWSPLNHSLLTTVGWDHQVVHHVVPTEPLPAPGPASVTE
T1 sequence (Q99873 with tags, fused parts or gaps): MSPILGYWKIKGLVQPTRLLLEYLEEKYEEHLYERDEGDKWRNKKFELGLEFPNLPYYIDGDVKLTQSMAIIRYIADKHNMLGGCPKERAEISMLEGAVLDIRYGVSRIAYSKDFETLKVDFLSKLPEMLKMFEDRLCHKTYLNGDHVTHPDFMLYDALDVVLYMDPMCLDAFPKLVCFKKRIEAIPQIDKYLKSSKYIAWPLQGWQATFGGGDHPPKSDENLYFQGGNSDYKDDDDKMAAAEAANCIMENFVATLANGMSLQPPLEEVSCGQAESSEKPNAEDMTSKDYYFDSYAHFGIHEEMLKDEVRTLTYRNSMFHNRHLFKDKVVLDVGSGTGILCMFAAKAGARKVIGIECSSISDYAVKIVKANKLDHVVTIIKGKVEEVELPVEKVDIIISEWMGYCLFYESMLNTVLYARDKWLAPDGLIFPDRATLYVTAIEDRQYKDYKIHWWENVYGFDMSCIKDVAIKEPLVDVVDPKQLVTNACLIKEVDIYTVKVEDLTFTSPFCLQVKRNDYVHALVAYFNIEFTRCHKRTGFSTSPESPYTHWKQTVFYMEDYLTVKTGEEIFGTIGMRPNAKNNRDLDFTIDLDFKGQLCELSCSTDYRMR

| SMILES | IC50 [1] [nM] | IC50 [2] [nM] | IC50 [3] [nM] | IC50 [4] [nM] |
| --- | --- | --- | --- | --- |
| NCCNCc1ccc(-c2ccc3ncn(C4CCCC4)c3c2)cc1 [Compound 146] | 1330 | 173 |  |  |
| Cn1cnc2ccc(-c3ccc(CNCCN)cc3)cc21 [Compound 165] | 4530 | 250 |  |  |
| COc1ccc(-n2cnc3ccc(-c4ccc(CNCCN)cc4)cc32)cc1 [Compound 89] | 414 | 417 |  |  |
| Cc1cc2cc(-c3ccc(CNCCN)cc3)cnc2[nH]1 [Compound 152] | 1690 | 316 |  |  |
| NCCNCc1ccc(-c2ccc3nc(-c4ccc5cccnc5c4)[nH]c3c2)cc1 [Compound 77] | 317 | 258 |  |  |
| COc1cccc(Cn2cnc3ccc(-c4ccc(CNCCN)cc4)cc32)c1 [Compound 90] | 430 | 125 |  |  |
| NCCNCc1ccc(-c2ccc3[nH]c(=O)n(-c4ccccc4)c3c2)cc1 [Compound 91] | 431 | 502 |  |  |
| N#Cc1ccc(-n2cnc3ccc(-c4ccc(CNCCN)cc4)cc32)cc1 [Compound 149] | 1530 | 238 |  |  |
| Cc1cccc(Cn2cnc3ccc(-c4ccc(CNCCN)cc4)cc32)c1 [Compound 127] | 802 | 74.5 |  |  |
| CC(C)n1ncc2c(C(=O)N(C)Cc3ccc(F)cc3)cc(-c3cccc(CN(C)CCN)c3)nc21 [Compound 240] |  | 7420 | 49.7 |  |
| CC(C)n1ncc2c(C(=O)N3CCc4ccccc4C3)cc(-c3cccc(CNCCN)c3)nc21 [Compound 269] |  | 13100 | 79.9 |  |
| Cc1[nH]c2ncc(-c3ccc(CNCCN)cc3)cc2c1C [Compound 140] | 1090 | 128 |  | 12500 |
| CN(C)C(=O)c1ccc(Cn2cnc3ccc(-c4ccc(CNCCN)cc4)cc32)cc1 [Compound 147] | 1330 | 129 |  |  |
| NCCNCc1ccc(-c2ccc3ncn(-c4ccccc4)c3c2)cc1 [Compound 113] | 604 | 366 |  |  |

More lines, now with the values ahead:

| IC50 [1] [nM] | IC50 [2] [nM] | IC50 [3] [nM] | IC50 [4] [nM] | SMILES |
| --- | --- | --- | --- | --- |
| 204 | 36500 |  |  | CNCCNCc1ccc(-c2cncc(C(=O)NCc3c(C)cc(C)[nH]c3=O)c2)cc1 [Compound 377] |
| 202 | 24400 |  |  | Cc1cc(C)c(CNC(=O)c2ccnc(-c3cccc(CN(C)CCN)c3)c2)c(=O)[nH]1 [Compound 376] |
|  | 33.3 | 5350 |  | NCCNCc1ccc(-c2ccc3ncn(Cc4cccc(C(=O)NCc5ccccc5)c4)c3c2)cc1 [Compound 337] |
|  | 52.4 | 2720 |  | NCCNCc1ccc(-c2ccc3ncn(Cc4cccc(C(=O)Nc5ccccc5)c4)c3c2)cc1 [Compound 330] |
|  | 29200 | 131 |  | CNCCN(C)Cc1cccc(-c2cc(C(=O)N[C@@H](C)c3ccccc3)c3cnn(Cc4ccccc4F)c3n2)c1 [Compound 283] |
|  | 181 | 10000 |  | NCCNCc1ccc(-c2ccc3ncn(Cc4cccc(C(=O)NC5CCOCC5)c4)c3c2)cc1 [Compound 347] |
|  | 135 | 5680 |  | COc1ccc(Cn2ncc3ccc(-c4ccc(CNCCN)cc4)cc32)cc1 [Compound 339] |
|  | 170 | 1270 |  | NCCNCc1ccc(-c2ccc3cnn(Cc4cccc(C(=O)N5CCCCC5)c4)c3c2)cc1 [Compound 326] |
|  | 66.5 | 5120 |  | NCCNCc1ccc(-c2ccc3ncn(CCc4cccc(Cl)c4)c3c2)cc1 [Compound 336] |
|  | 1070 | 272 |  | COc1ccc(Cn2cnc3ccc(-c4cccc(CNCCN)c4)cc32)cc1 [Compound 309] |
|  | 17400 | 128 |  | CNCCN(C)Cc1cccc(-c2cc(C(=O)N[C@@H](C)c3ccccc3)c3cnn(Cc4ccccc4)c3n2)c1 [Compound 281] |
|  | 119 | 8890 |  | CC(=O)c1cccc(Cn2ncc3ccc(-c4ccc(CNCCN)cc4)cc32)c1 [Compound 343] |
|  | 80.5 | 2190 |  | NCCNCc1ccc(-c2ccc3ncn(Cc4cccc(C(=O)Nc5cccc6c5CCCC6)c4)c3c2)cc1 [Compound 328] |
|  | 118 | 2810 |  | CN1CCCN(C(=O)c2cccc(Cn3cnc4ccc(-c5ccc(CNCCN)cc5)cc43)c2)CC1 [Compound 331] |
